Measurements as given in the supplement of paper PMC10307832.

compound: COc1cc(Nc2ncc(F)c(Nc3ccc4c(n3)NC(=O)C(C)(C)O4)n2)cc(OC)c1OC [R406] + C[C@]1(O)C[C@@H](c2nc(-c3ccc4ccc(-c5ccccc5)nc4c3)c3c(N)nccn32)C1 [Linsitinib] (partner 1 µM); experiment: relative viability (nuclei count vs DMSO), 5 days (fraction); higher = more cells survive; settings: first compound 8 µM
Method in brief: (§1)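 For relative viability, nuclei counts in treated wells were divided by those in vehicle wells. Lung cancer cell lines had been pin-tool dosed in 1536-well plates the day after seeding and cultured for 5 days, then fixed and stained in one step (final 0.05% Triton X-100, 1% formaldehyde, 1 ug/ml Hoechst) and imaged at 4×. Doses were one drug alone or a fixed anchor-drug dose plus five library-drug doses (not always all listed) in √10 steps, and values are duplicate-plate medians.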

Cell Line	relative viability
LK-2	0.11
NCI-H2087	0.709
NCI-H358	0.336
H3255	0.725
COR-L23	0.405
COR-L 105	0.736
IA-LM	0.887
LOU-NH91	0.521
NCI-H1793	0.376
NCI-H2405	0.221
HOP-62	0.865
HCC-44	0.305
A549	0.418
SK-MES-1	0.488
LU99A	0.197
BEN	0.708
NCI-H1395	0.727
NCI-H1299	0.496

compound: O=C(/C=C/c1cccnc1)NCCCCC1CCN(C(=O)c2ccccc2)CC1 [Daporinad] + COc1cccc2cc(-c3nc([C@H]4CC[C@H](C(=O)O)CC4)n4ncnc(N)c34)[nH]c12 [OSI-027] (partner 0.5 µM); experiment: as above; settings: first compound 0.0005 µM
Method in brief: as §1

Cell Line	relative viability
NCI-H522	0.612
NCI-H2342	0.674
NCI-H838	0.415
NCI-H1650	0.637
NCI-H1993	0.618
NCI-H441	0.552
PC-14	0.708
LCLC-103H	0.499
NCI-H596	0.553
NCI-H2126	0.718
EMC-BAC-2	0.393
NCI-H2085	0.695
HCC-366	0.961
NCI-H1666	0.822
NCI-H647	0.583
LK-2	0.225
NCI-H2087	0.474
NCI-H358	0.664

Cell Line	relative viability
NCI-H2170	0.66
H3255	0.476
COR-L23	0.737
COR-L 105	0.671
LOU-NH91	0.732
ChaGo-K-1	0.673
NCI-H1793	0.25
NCI-H2405	0.698
HOP-62	0.812
HCC-44	0.481
SK-MES-1	0.532
LU99A	0.33
BEN	0.276
SW 900	0.42
NCI-H1395	0.644
NCI-H1623	0.413
NCI-H1648	0.231

same assay, conditions: first compound 0.001581 µM

Cell Line	relative viability
NCI-H522	0.942
NCI-H2342	0.552
NCI-H838	0.465
NCI-H1650	0.655
NCI-H1993	0.508
NCI-H441	0.856
PC-14	1.04
LCLC-103H	0.48
NCI-H596	0.674
NCI-H2126	0.592
EMC-BAC-2	0.435
NCI-H2085	0.773
HCC-366	0.907
NCI-H1666	0.989
NCI-H647	0.598
LK-2	0.241
NCI-H2087	0.693
NCI-H358	0.794

Cell Line	relative viability
NCI-H2170	0.734
H3255	0.596
COR-L23	0.772
COR-L 105	0.748
LOU-NH91	0.779
ChaGo-K-1	0.597
NCI-H1793	0.252
NCI-H2405	0.645
HOP-62	0.935
HCC-44	0.608
SK-MES-1	0.608
LU99A	0.282
BEN	0.301
SW 900	0.475
NCI-H1395	0.64
NCI-H1623	0.439
NCI-H1648	0.26

same assay, conditions: first compound 0.005 µM

Cell Line	relative viability
NCI-H522	0.762
NCI-H2342	0.602
NCI-H838	0.475
NCI-H1650	0.733
NCI-H1993	0.55
NCI-H441	0.805
PC-14	0.917
LCLC-103H	0.493
NCI-H596	0.758
NCI-H2126	0.689
EMC-BAC-2	0.326
NCI-H2085	0.817
HCC-366	1.22
NCI-H1666	0.826
NCI-H647	0.647
LK-2	0.18
NCI-H2087	0.694
NCI-H358	0.886

Cell Line	relative viability
NCI-H2170	0.793
H3255	0.587
COR-L23	0.814
COR-L 105	0.883
LOU-NH91	0.772
ChaGo-K-1	0.636
NCI-H1793	0.343
NCI-H2405	0.724
HOP-62	0.877
HCC-44	0.462
SK-MES-1	0.734
LU99A	0.358
BEN	0.299
SW 900	0.745
NCI-H1395	0.71
NCI-H1623	0.466
NCI-H1648	0.262

same assay, conditions: first compound 0.01581 µM

Cell Line	relative viability
NCI-H522	0.667
NCI-H2342	0.613
NCI-H838	0.555
NCI-H1650	0.825
NCI-H1993	0.542
NCI-H441	0.671
PC-14	0.604
LCLC-103H	0.471
NCI-H596	0.656
NCI-H2126	0.756
EMC-BAC-2	0.202
NCI-H2085	0.852
HCC-366	1.03
NCI-H1666	0.896
NCI-H647	0.735
LK-2	0.192
NCI-H2087	0.538
NCI-H358	0.77

Cell Line	relative viability
NCI-H2170	0.699
H3255	0.633
COR-L23	0.255
COR-L 105	0.694
LOU-NH91	0.83
ChaGo-K-1	0.471
NCI-H1793	0.254
NCI-H2405	0.626
HOP-62	0.665
HCC-44	0.639
SK-MES-1	0.601
LU99A	0.305
BEN	0.287
SW 900	0.463
NCI-H1395	0.739
NCI-H1623	0.475
NCI-H1648	0.244
